From ChEMBL document CHEMBL1201862, “PubChem BioAssay data set” (2004)
Where a name gives a salt, the structure may show the parent alone.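 Method: 48-hour compound exposure of cells in 96-well plates, five concentrations, linear interpolation of endpoints. Abbreviation: GI50, concentration required for 50% inhibition of growth.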 Activity calls are given as the source filed them. No stated cut-off is given here; in the data, active = GI50 up to about 1.1 µM and inactive = higher.

What was measured:
Assay in all cases: NCI-60 cell line screen, 48 h
DMS-273 = test system: DMS-273
SNB-78 = test system: SNB-78
RXF 631 = test system: RXF 631
XF498 = test system: XF498
KM-20L2 = test system: KM-20L2
M19-MEL = test system: M19-MEL
DLD-1 = test system: DLD-1
DMS-114 = test system: DMS-114
BT-549 = test system: BT-549

| Structure (SMILES) | GI50 (DMS-273) | GI50 (SNB-78) | GI50 (RXF 631) | GI50 (XF498) | GI50 (KM-20L2) | GI50 (M19-MEL) | GI50 (DLD-1) | GI50 (DMS-114) | GI50 (BT-549) |
| --- | --- | --- | --- | --- | --- | --- | --- | --- | --- |
| COc1ccc(C(c2ccccc2)(c2ccc(OC)cc2)N2C(=O)NC3C(CCCCC(=O)NCCCCCCOP(OCCC#N)N(C(C)C)C(C)C)SCC32)cc1 (stereo not drawn) | 12.7 µM (inactive) | 16.2 µM (inactive) | 4.06 µM (inactive) | 15.8 µM (inactive) | 17.1 µM (inactive) | 16.8 µM (inactive) | 14.8 µM (inactive) | 17.7 µM (inactive) |  |
| COc1ccc(Sc2ccccc2[N+](=O)[O-])cc1 | 4.98 µM (inactive) | 26.4 µM (inactive) | 9.75 µM (inactive) |  | > 10 µM (inactive) | 7.23 µM (inactive) | 24.8 µM (inactive) |  |  |
| COc1cc(OC)c2c(O)cc(CC(C)O)cc2c1 (stereo not drawn) | > 100 µM (inactive) | > 100 µM (inactive) | > 100 µM (inactive) | > 100 µM (inactive) | > 100 µM (inactive) | > 100 µM (inactive) | > 100 µM (inactive) | > 100 µM (inactive) |  |
| CC[C@@]1(O)C(=O)OCc2c1cc1n(c2=O)Cc2cc3c(CN(C)C)c(O)ccc3nc2-1 [TOPOTECAN HYDROCHLORIDE] | 0.0191 µM (active) | 4.71 µM (inactive) | 0.375 µM (active) | 0.0387 µM (active) | 0.146 µM (active) | 0.0649 µM (active) |  | 0.0187 µM (active) |  |
| COC(=O)C(=O)C(C(=O)C(=O)Nc1ccc([N+](=O)[O-])cc1[N+](=O)[O-])c1nc2ccc([N+](=O)[O-])cc2nc1O (stereo not drawn) | > 100 µM (inactive) | > 100 µM (inactive) | > 100 µM (inactive) | 76.7 µM (inactive) | > 100 µM (inactive) | > 100 µM (inactive) | > 100 µM (inactive) | > 100 µM (inactive) |  |
| COc1cccc2c1C(=O)c1c(O)c3c(c(O)c1C2=O)C[C@@](O)(C(=O)CO)CC3OC1CC(NCCCC(OC(C)=O)OC(C)=O)C(O)C(C)O1 (stereo partly drawn) | < 0.0001 µM (active) | 0.00224 µM (active) | < 0.0001 µM (active) | 0.00183 µM (active) | 0.000912 µM (active) | 0.00261 µM (active) | 0.0023 µM (active) | 0.00703 µM (active) |  |
| CN(C)CC1CCCCCCCCCC(CN(C)C)C1=O (stereo not drawn) | > 100 µM (inactive) | > 100 µM (inactive) | > 100 µM (inactive) | > 100 µM (inactive) | 61.4 µM (inactive) | 63.1 µM (inactive) | > 100 µM (inactive) | > 100 µM (inactive) | 6.21 µM (inactive) |
| C/C(=N\NC(=O)C[N+](C)(C)C)c1sc(-c2cccnc2)nc1C | > 100 µM (inactive) | > 100 µM (inactive) | > 100 µM (inactive) | > 100 µM (inactive) | > 100 µM (inactive) | > 100 µM (inactive) | > 100 µM (inactive) | > 100 µM (inactive) |  |
| NC(=O)c1ncn(Cc2ccccc2)c1CNC(N)=S | > 100 µM (inactive) | > 100 µM (inactive) | > 100 µM (inactive) | > 100 µM (inactive) |  | > 100 µM (inactive) | > 100 µM (inactive) | > 100 µM (inactive) |  |
| N=C(NC(=N)Nc1ccc(S(=O)(=O)Nc2cnc3ccccc3n2)cc1)Nc1ccc(Br)cc1 | > 100 µM (inactive) | > 100 µM (inactive) | > 100 µM (inactive) | > 100 µM (inactive) | > 100 µM (inactive) | > 100 µM (inactive) | > 100 µM (inactive) | > 100 µM (inactive) |  |
| CN1CCCS/C1=C1/SC(=S)N(c2ccccc2)C1=O | > 100 µM (inactive) | > 100 µM (inactive) | > 100 µM (inactive) | > 100 µM (inactive) | > 100 µM (inactive) | > 100 µM (inactive) | > 100 µM (inactive) | > 100 µM (inactive) |  |
| O=C(CC(=O)N1N=C(c2ccccc2)C(/N=N/c2ccccc2Cl)C1=O)Nc1ccccc1Cl (stereo not drawn) | 37.5 µM (inactive) | 40.9 µM (inactive) | 48.5 µM (inactive) | 20.7 µM (inactive) | 46.3 µM (inactive) | 32.2 µM (inactive) | 23 µM (inactive) | 54.1 µM (inactive) |  |
| NC1=NC(c2ccccc2)CC(c2cc(Cl)cc(Br)c2O)=N1 (stereo not drawn) | 7.55 µM (inactive) | 17.2 µM (inactive) | 17.5 µM (inactive) | 13.7 µM (inactive) | 15.7 µM (inactive) | 12.8 µM (inactive) | 12 µM (inactive) | 8.69 µM (inactive) |  |
| NC(CCCNc1ccc(O)cc1)C(=O)O (stereo not drawn) | > 100 µM (inactive) | > 83.6 µM (inactive) | 54.3 µM (inactive) | 22.5 µM (inactive) | > 100 µM (inactive) | 18.2 µM (inactive) | 20.4 µM (inactive) | 24.9 µM (inactive) |  |
| Fc1cccc(Cl)c1C1SCc2nc3ccccc3n21 (stereo not drawn) | 22.6 µM (inactive) | 22.2 µM (inactive) | 25.3 µM (inactive) | 27.7 µM (inactive) | 17.2 µM (inactive) | 26.1 µM (inactive) | 28.8 µM (inactive) | 20.7 µM (inactive) |  |
| COc1ccc(/C=C\c2cc(OC)c(OC)c(OC)c2)c(O)c1O [COMBRETASTATIN A-1] | 0.05 µM (active) | 0.0953 µM (active) |  | 0.0551 µM (active) | 8.93 µM (inactive) | 0.33 µM (active) | 0.123 µM (active) | 0.104 µM (active) | < 0.0223 µM (active) |
| Cn1cc2ccccc2c1-c1nc(F)nc(Nc2ccc(N)cc2)n1 | 10.2 µM (inactive) | 15.2 µM (inactive) | 18.3 µM (inactive) | 12.5 µM (inactive) | 18 µM (inactive) | 11.9 µM (inactive) | 13 µM (inactive) | 17.7 µM (inactive) |  |
